The source of these data is patent US12139499B2, “Heteroaryl compounds for treating Huntington's disease” (PTC THERAPEUTICS, INC., priority 2018, dated 2024).

Each structure is given as a SMILES string. Some results are limits rather than exact numbers.

The experiment has as its system Endogenous Huntingtin Protein. The experiment in a line: Endogenous Huntingtin Protein Assay (ELISA-based MSD electrochemiluminescence). The class given is cell-based. The following applies: Table 1. In a few lines: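 Sandwich MSD electrochemiluminescence immunoassay. Capture used MW1 (expanded polyglutamine) or MAB2166 antibody coated at 1 μg/mL overnight at 4 °C. Samples were bound overnight at 4 °C, then a rabbit monoclonal detection antibody and SULFO-TAG anti-rabbit, each at 0.25 μg/mL, were applied for 1 h at room temperature.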
A general note: In an ELISA, binding on a coated surface is turned into a signal by an enzyme label.
In general, IC50 refers to the point on the concentration scale where inhibition reaches its midpoint. A low value points to inhibition by little substance. For the molecule `Cc1cn2cc(-c3cc4sc(N(C)C5CCN(C)C(C)C5)nc4cn3)cc(F)c2n1` (stereo not drawn) [Compound 380, N-(1,2-dimethylpiperidin-4-yl)-6-(8-fluoro-2-methylimidazo[1,2-a]pyridin-6-yl)-N-methyl[1,3]thiazolo[4,5-c]pyridin-2-amine], the IC50 fell in the range of 100 to 500 nM.

In turn, `Cc1cn2nc(-c3cc(F)c4nc(C5CCNCC5)sc4c3)ccc2n1` [Compound 45, 6-[4-fluoro-2-(piperidin-4-yl)-1,3-benzothiazol-6-yl]-2-methylimidazo[1,2-b]pyridazine] yielded an IC50 of no more than 100 nM.

Molecule `CN(c1nc2ccc(-c3ccc4nn(C)cc4c3)cc2s1)C1CCNC(C)(C)C1` (stereo not drawn) [Compound 155, N-(2,2-dimethylpiperidin-4-yl)-N-methyl-6-(2-methyl-2H-indazol-5-yl)-1,3-benzothiazol-2-amine] displayed an IC50 of 100 to 500 nM.

On to `CN(c1nc2ccc(-c3cc(F)c4nn(C)cc4c3)cc2s1)C1CC(C)(C)NC(C)(C)C1` [Compound 57, 6-(7-fluoro-2-methyl-2H-indazol-5-yl)-N-methyl-N-(2,2,6,6-tetramethylpiperidin-4-yl)-1,3-benzothiazol-2-amine], for which the IC50 is no more than 100 nM.

With `Cc1cc(-c2cnc3nc(NC4CCNCC4)sc3c2)cc2cn(C)nc12` [Compound 14, 6-(2,7-dimethyl-2H-indazol-5-yl)-N-(piperidin-4-yl)[1,3]thiazolo[4,5-b]pyridin-2-amine], the IC50 fell in the range of 1000 to 3000 nM.

`Cc1cn2nc(-c3cc(F)c4nc(N5CCCNCC5)sc4c3)cc(C)c2n1` [Compound 121, 6-[2-(1,4-diazepan-1-yl)-4-fluoro-1,3-benzothiazol-6-yl]-2,8-dimethylimidazo[1,2-b]pyridazine] gave an IC50 of no more than 100 nM.

In the case of `Oc1cc(-c2cn[nH]c2)ccc1-c1cc2sc(N3CCC34CCCNC4)nc2nn1` (stereo not drawn) [Compound 363, 2-[6-(1,6-diazaspiro[3.5]nonan-1-yl)[1,3]thiazolo[4,5-c]pyridazin-3-yl]-5-(1H-pyrazol-4-yl)phenol], the IC50 was no more than 100 nM.

`Cc1cn2cc(-c3cc4sc(N(C)C5CC(C)(C)NC(C)(C)C5)nc4cn3)cc2c(C)n1` [Compound 297, 6-(1,3-dimethylpyrrolo[1,2-a]pyrazin-7-yl)-N-methyl-N-(2,2,6,6-tetramethylpiperidin-4-yl)[1,3]thiazolo[4,5-c]pyridin-2-amine] returned an IC50 of no more than 100 nM.

For `C[C@H]1C[C@@H](N(C)c2nc3nnc(-c4ccc(-c5cn[nH]c5)cc4O)cc3s2)CCN1` [Compound 394, 2-(6-{methyl[(2S,4S)-2-methylpiperidin-4-yl]amino}[1,3]thiazolo[4,5-c]pyridazin-3-yl)-5-(1H-pyrazol-4-yl)phenol], the IC50 is no more than 100 nM.

As for `Fc1cc(-c2ccc3[nH]ncc3n2)cc2sc(C3CCNCC3)nc12` [Compound 78, 5-[4-fluoro-2-(piperidin-4-yl)-1,3-benzothiazol-6-yl]-1H-pyrazolo[4,3-b]pyridine], the IC50 fell in the range of 500 to 1000 nM.

`CCc1cc(-c2ccc3nc(N(C)C4CC(C)(C)NC(C)(C)C4)sc3c2)cn2cc(C)nc12` [Compound 93, 6-(8-ethyl-2-methylimidazo[1,2-a]pyridin-6-yl)-N-methyl-N-(2,2,6,6-tetramethylpiperidin-4-yl)-1,3-benzothiazol-2-amine] came in with an IC50 of 100 to 500 nM.

Consider `CN(c1nc2c(F)cc(-c3ccc4nn(C)cc4c3)cc2s1)C1CC(C)(C)NC(C)(C)C1` [Compound 23, 4-fluoro-N-methyl-6-(2-methyl-2H-indazol-5-yl)-N-(2,2,6,6-tetramethylpiperidin-4-yl)-1,3-benzothiazol-2-amine], for which the IC50 is no more than 100 nM.

`COc1cc(-c2cc(F)c3nc(C4CCNCC4)sc3c2)nn2cc(C)nc12` [Compound 151, 6-[4-fluoro-2-(piperidin-4-yl)-1,3-benzothiazol-6-yl]-8-methoxy-2-methylimidazo[1,2-b]pyridazine] returned an IC50 of no more than 100 nM.

Molecule `Cc1cn2cc(-c3cc4sc(NC5CC(C)(C)N(C)C(C)(C)C5)nc4cn3)cc(F)c2n1` [Compound 267, 6-(8-fluoro-2-methylimidazo[1,2-a]pyridin-6-yl)-N-(1,2,2,6,6-pentamethylpiperidin-4-yl)[1,3]thiazolo[4,5-c]pyridin-2-amine] returned an IC50 of 100 to 500 nM.

`CN(c1nc2nnc(-c3ccc(-c4c[nH]nc4F)cc3O)cc2s1)C1CCCNCC1` (stereo not drawn) [Compound 398, 2-{6-[(azepan-4-yl)(methyl)amino][1,3]thiazolo[4,5-c]pyridazin-3-yl)-5-(3-fluoro-1H-pyrazol-4-yl)phenol] returned an IC50 of no more than 100 nM.

On to `Cc1cn2nc(-c3cc(F)c4nc(N5CCC(O)CC5)sc4c3)cc(C)c2n1` [Compound 143, 1-[6-(2,8-dimethylimidazo[1,2-b]pyridazin-6-yl)-4-fluoro-1,3-benzothiazol-2-yl]piperidin-4-ol], for which the IC50 is 100 to 500 nM.

The molecule `Cc1cn2cc(-c3cc4sc(N(C)C5CC6CCCC(C5)N6)nc4cn3)cc(C)c2n1` (stereo not drawn) [Compound 261, N-(9-azabicyclo[3.3.1]non-3-yl)-6-(2,8-dimethylimidazo[1,2-a]pyridin-6-yl)-N-methyl[1,3]thiazolo[4,5-c]pyridin-2-amine] showed an IC50 of no more than 100 nM.

Molecule `Cc1cn2nc(-c3ccc4nc(C5CCNCC5)sc4c3)cc(C)c2n1` [Compound 139, 2,8-dimethyl-6-[2-(piperidin-4-yl)-1,3-benzothiazol-6-yl]imidazo[1,2-b]pyridazine] registered an IC50 of no more than 100 nM.

Consider `Cn1cc2cc(-c3ccc4nc(C5CCNCC5)sc4c3)cc(C#N)c2n1` [Compound 84, 2-methyl-5-[2-(piperidin-4-yl)-1,3-benzothiazol-6-yl]-2H-indazole-7-carbonitrile], for which the IC50 is no more than 100 nM.

`Cc1cn2cc(-c3ccc4nc(N(C)C5CC(C)(C)NC(C)(C)C5)sc4n3)cc(C#N)c2n1` [Compound 178, 2-methyl-6-{2-[methyl(2,2,6,6-tetramethylpiperidin-4-yl)amino][1,3]thiazolo[5,4-b]pyridin-5-yl}imidazo[1,2-a]pyridine-8-carbonitrile] gave an IC50 of no more than 100 nM.

Molecule `Cc1cn2cc(-c3cc4sc(OC5CC(C)(C)NC(C)(C)C5)nc4cn3)cc(C#N)c2n1` [Compound 309, 2-methyl-6-{2-[(2,2,6,6-tetramethylpiperidin-4-yl)oxy][1,3]thiazolo[4,5-c]pyridin-6-yl}imidazo[1,2-a]pyridine-8-carbonitrile] had an IC50 of no more than 100 nM.

Take `Cc1cn2nc(-c3cc(F)c4nc(N(C)C5CCN[C@@H](C)C5)sc4c3)cc(C)c2n1` (stereo partly drawn) [Compound 165, 6-(2,8-dimethylimidazo[1,2-b]pyridazin-6-yl)-4-fluoro-N-methyl-N-[(2S)-2-methylpiperidin-4-yl]-1,3-benzothiazol-2-amine]: the IC50 is no more than 100 nM.

Molecule `Cc1cn2cc(-c3cc4sc(NC5CC6CCC(C5)N6)nc4cn3)cc(F)c2n1` (stereo not drawn) [Compound 212, N-[(3-exo)-8-azabicyclo[3.2.1]oct-3-yl]-6-(8-fluoro-2-methylimidazo[1,2-a]pyridin-6-yl)[1,3]thiazolo[4,5-c]pyridin-2-amine] yielded an IC50 of no more than 100 nM.

`CN(c1nc2ccc(-c3ccc4nn(C)cc4c3)cc2s1)C1CCNCC1` [Compound 8, N-methyl-6-(2-methyl-2H-indazol-5-yl)-N-(piperidin-4-yl)-1,3-benzothiazol-2-amine] showed an IC50 of 100 to 500 nM.
